Patent USRE49311E1, “Bacillus thuringiensis RTI545 compositions and methods of use for benefiting plant growth and controlling plant pests” (priority 2016, dated 2022)

What was measured:
[1] = tested on: corn rootworm (Diabrotica spp.); experiment: In-furrow corn field trials, corn rootworm-infested plots (18 trials, North America); type: in vivo; details: vs untreated, bifenthrin 112 g ai/Ha, RTI545 1.24 × 10^12 CFU/Ha, tefluthrin 168 g ai/Ha; for % Damage reduction, Heavy CRW Pressure / % Yield Increase, Heavy CRW Pressure: 5 trials; for % Damage reduction / % Yield Increase: 18 trials
From the text: (§1) In-furrow treatments of corn with RTI545 were studied in multiple field trials in various locations in North America to evaluate effectiveness against wireworm (Melanotus spp.) and corn rootworm (Diabrotica spp.). The effects on yield and crop damage of several treatments compared to untreated controls for the individual North America trials were aggregated and summarized as an average for the trial in the following tables as % yield increase and % reduction in damage compared to the untreated controls. Seven trials were evaluated for wireworm. Eighteen trials were evaluated for corn rootworm. Five trials with heavy damage from corn rootworm were averaged separately.

[2] = tested on: wireworm (Melanotus spp.); experiment: In-furrow corn field trials, wireworm-infested plots (7 trials, North America); type: in vivo; details: vs untreated, average of 7 trials; bifenthrin 56 g ai/Ha, RTI545 3 × 10^11 CFU/Ha, tefluthrin 168 g ai/Ha
From the text: as §1

[3] = tested on: root knot (RKN) nematode juveniles (J2); experiment: Nematode chemotaxis assay on agar plates; type: in vivo, Meloidogyne spp.; details: for Cf (chemotaxis factor) at 3 h / Cf (chemotaxis factor) at 5 h: Cf<0.5 repellent, >2 attractant
Description: Similarly, activity of RTI545 against nematodes may also be due to compound(s) produced by the strain. A nematode chemotaxis assay on agar plates was conducted as described below to evaluate response of root knot (RKN) nematode juveniles (J2) to different concentrations of kanosamine and RTI545 supernatant in vitro.
The test arena is shown schematically in FIG. 6. Nine-cm-diameter Petri dishes were filled with 15 ml 0.75% Phytagel (including 0.1% MgSO4.7H2O). […] was used, instead of water agar, so that nematode tracks could be observed under a microscope. Wells of 0.5 cm diameter which can accommodate approximately 50 μl of solution were made at opposite sides of the dishes at 2 cm from the center. The test samples were applied in the wells and left to diffuse for 1 hour with lids on the dishes, so a gradient around the wells could be established. Then, 75-100 J2 stage root-knot nematodes suspended in 5 μl of sterile distilled water were placed by pipette in the center 1.5 cm-diameter circle of the plate. When the surface tension of the water suspension was lost, the dishes were covered with lids and incubated in the dark on a leveled platform at 25° C. for […]. After incubation the plates were transferred to 4° C. to stop nematode movement for scoring at 2 h, 3 h and 5 h after setup. Three replicates were done for each test material.
For scoring, the test arena was divided into sixteen zones, designated as 1-8 for attractive zones and a-h for repellent zones as shown in FIG. 6A. Nematodes attracted to the test substance would tend to move to the numbered (attractive) zones, resulting in clustering along the axis parallel to the orientation of the wells. Repelled nematodes would tend to move to the lettered (repellant) zones, resulting in clustering along the axis perpendicular to the orientation of the wells. The chemotaxis factor (Cf) was calculated by dividing the total number of nematodes in the attractant zones by the total number of nematodes in the repellent zones. A Cf greater than 2 meant attraction for the nematodes, while lower than 0.5 indicated repellence, and 0.5 to 2 was considered neutral.

[4] = tested on: lesion nematode; experiment: Soil drench tests against lesion nematode; type: in vivo, Pratylenchus penetrans
From the text: Similar tests wherein RTI545 was applied as a soil drench at the rate of 2.5×10^11 CFU/ha provided 71% reduction in lesion nematode numbers per root compared to 95% for abamectin. In soil drench tests applied to pots in the greenhouse with soil infested with lesion nematode eggs and adults (2000 individuals/pot) RTI545 at the rate of 2.5×10^13 CFU/ha provided 80% reduction in nematode numbers per root compared to 86% reduction by cadusafos.

[5] = tested on: root knot nematode (RKN) eggs; experiment: Root knot nematode egg hatching assay, 24-well plates; type: in vivo, Meloidogyne incognita/hapla; details: for % Hatching after 7 days / % Hatching after 14 days: mean of 6 replicates ± SD
Description: The following day, the optical density (OD) of 1:100 dilutions was measured at 600 nm to estimate the volume needed for inoculation of fermentation flasks. […] Bacteria were grown overnight (for 16 h) at 200 rpm at 30° C. Two ml of bacterial culture was saved to measure the OD and colony forming units (CFU). The remaining culture was centrifuged (2500 rpm, 15 min) and the supernatant was filter-sterilized through a 0.22 μm filter. […] The supernatant was kept at 4° C. until the initiation of the bioassay. […] A mixed culture of root knot nematodes (Meloidogyne incognita and M. hapla) was used. Nematode eggs were extracted from tomato roots by bleaching and cleaned using an Opti-prep centrifugation step followed by two washes in water. Before setting up the hatching assay, the percentage of early (eggs with a visible embryo) and late eggs (eggs with differentiated juveniles inside; […] Only fresh eggs (collected at the day of the initiation of the assay) were used for the bioassay. The assay was performed in 24-well tissue culture plates. […] Antibiotics were suspended in sterile distilled water. The final concentration of antibiotics in testing plates was 75 mg/L of penicillin and 75 mg/L of streptomycin. […] The addition of methyl cellulose increases the accuracy of adding the same number of inoculum to each treatment. The treatments were set up in 6 replications. Each plate was covered, wrapped in aluminum foil and placed in an incubator set at 25° C. […] For each time point and treatment, the percent hatching was calculated according to the formula: […] All treatments were supplemented with antibiotics (75 mg/L of penicillin and 75 mg/L of streptomycin) to prevent contamination. Data are means from 6 replicates± standard deviation of the means.

[6] = tested on: soybean cyst nematode (Heterodera glycines); experiment: Soybean cyst nematode soil drench assay, greenhouse; type: in vivo; details: day 70
[7] = tested on: Southern Corn Rootworm (SCRW) larvae; experiment: SCRW larvae choice feeding assay of corn seedlings; details: for Mean percent of SCRW larvae on treated portion of the filter paper / Mean percent of SCRW larvae on untreated portion of the filter paper: 3 days
Description: Repellency was measured using a choice in vitro plate feeding assay of corn seedlings by SCRW larvae and scored after 72 hours as the percentage of SCRW larvae on the non-treated side of the plate. In the case of no repellency, an equal distribution of 50% on both the treated and non-treated half of the plate would be expected, indicating 0% repellency. In this experiment, the Bacillus thuringiensis RTI545 and Bacillus thuringiensis subsp. kurstaki HD-1 (HD-1), were evaluated in comparison to a water control after 3 days in the assay.
The choice feeding assay for SCRW larvae using corn seedlings was also repeated to compare RTI545 to another Bacillus thuringiensis strain FD30 and kanosamine. […] Repellency was measured using a choice in vitro plate feeding assay of corn seedlings by SCRW larvae and scored after 72 hours as the percentage of SCRW larvae on the non-treated side of the plate. In the case of no repellency, an equal distribution of 50% on both the treated and non-treated half of the plate would be expected, indicating 0% repellency.

[8] = RTI545 2.5 × 10^12 CFU/ha, Abamectin 0.01 ppm, VENERATE XC 500 mg/plant
[9] = RTI545 2.5 × 10^13 CFU/ha, Abamectin 0.1 ppm
[10] = kanosamine 100 μg/ml (alone or + FD30)

## Cc1c(COC(=O)[C@@H]2[C@H](/C=C(\Cl)C(F)(F)F)C2(C)C)cccc1-c1ccccc1 (racemic) [Bifenthrin]
[1]
  % Damage reduction, Heavy CRW Pressure: 45%
  % Yield Increase, Heavy CRW Pressure: 11%
  % Damage reduction: 42%
  % Yield Increase: 4%
[2]
  % Yield Increase: 5%

## Cc1c(F)c(F)c(COC(=O)[C@@H]2[C@H](/C=C(\Cl)C(F)(F)F)C2(C)C)c(F)c1F (racemic) [Tefluthrin]
[1]
  % Damage reduction, Heavy CRW Pressure: 52%
  % Yield Increase, Heavy CRW Pressure: 16%
  % Damage reduction: 46%
  % Yield Increase: 3%
[2]
  % Yield Increase: 5%

## CC(=O)O [Acetic Acid]
[3]; acetic acid 1%
  Cf (chemotaxis factor) at 3 h: 0.45
  Cf (chemotaxis factor) at 5 h: 0.4
[3]; acetic acid 1%, data not shown
  Cf (chemotaxis factor) at 2 h: neutral

## CCOP(=O)(SC(C)CC)SC(C)CC (stereo not shown) [cadusafos]
[4]; soil drench to greenhouse pots, eggs and adults 2000 individuals/pot, RTI545 2.5×10^13 CFU/ha
  Reduction in nematode numbers per root: 86%

## abamectin
[4]; soil drench, RTI545 2.5×10^11 CFU/ha
  Reduction in lesion nematode numbers per root: 95%
[5]; abamectin 0.1 ppm
  % Hatching after 7 days: 24.4 ± 2.9%
  % Hatching after 14 days: 27.8 ± 5.7%
[5]; abamectin 1.0 ppm
  % Hatching after 7 days: 4.9 ± 0.9%
  % Hatching after 14 days: 8.5 ± 1.6%
[5]; rate of 1 ppm, after 14 days
  Egg hatching inhibition: 72%
[6]; [8]
  % Reduction of cysts: 79%
  Number of cysts extracted: 31
[6]; [9]
  % Reduction of cysts: 96%
  Number of cysts extracted: 7

## kanosamine
[3]; all tested kanosamine rates (1, 10 and 100 μg/ml) and all time points
  Cf (chemotaxis factor): higher than 0.5
[3]; kanosamine 1 μg/ml
  Cf (chemotaxis factor) at 3 h: 1.0
  Cf (chemotaxis factor) at 5 h: 1.0
[3]; kanosamine 10 μg/ml
  Cf (chemotaxis factor) at 3 h: 0.6
  Cf (chemotaxis factor) at 5 h: 0.7
[3]; kanosamine 100 μg/ml
  Cf (chemotaxis factor) at 3 h: 0.6
  Cf (chemotaxis factor) at 5 h: 0.7
[5]; after seven days
  Hatching rate higher than in water control: up to 80%
[5]; kanosamine 1 μg/ml
  % Hatching after 7 days: 35.9 ± 5.2%
  % Hatching after 14 days: 40.1 ± 6.8%
[5]; kanosamine 10 μg/ml
  % Hatching after 7 days: 39.4 ± 3%
  % Hatching after 14 days: 42.1 ± 12.1%
[5]; kanosamine 100 μg/ml
  % Hatching after 7 days: 32.4 ± 4.8%
  % Hatching after 14 days: 41.6 ± 6.8%
[7]; kanosamine 10 μg/ml
  Mean percent of SCRW larvae on treated portion of the filter paper: 16.67%
  Mean percent of SCRW larvae on untreated portion of the filter paper: 83.33%
[7]; [10]
  Mean percent of SCRW larvae on treated portion of the filter paper: 16.67%
  Mean percent of SCRW larvae on untreated portion of the filter paper: 83.33%
[7]; all dilution rates between 0.1 μg/ml and 100.0 μg/ml, at 24 h, two separate bioassays
  Repellent effects on SCRW: repellent effects
[7]; at 3 d, choice assay
  Feeding damage on corn: minimal feeding damage
[7]; second test, filter paper treated with 30.0 ug/ml, out to 5 days
  Repellency to SCRW: complete repellency
[7]; treated filter paper at 10 and 100 μg/ml
  Avoidance response of SCRW: 80%
